Assay results: patent publication US20240051970A1, “COMPOUNDS AND COMPOSITIONS FOR TREATING CONDITIONS ASSOCIATED WITH STING ACTIVITY” (IFM Due, Inc., priority 2020, published 2024)

What follows are compounds tested against T1, hSTING (Homo sapiens, UniProt Q86WV6, G230A/H232R/R293Q/R71H) (assay: STING reporter assay (luciferase) in THP1-Dual KO-IFNAR2 cells activated with 2'3'cGAMP). Settings: 15 μM 2'3'cGAMP, 24 h.
T1 construct: host or cells: THP1-Dual KO-IFNAR2 cells
Assay type: cell-based
Method: STING pathway activation by the compounds described herein was measured using THP1-Dual™ cells (KO-IFNAR2).
THP1-Dual™ KO-IFNAR2 Cells (obtained from invivogen) were maintained in RPMI, 10% FCS, 5 ml P/S, 2 mM L-glut, 10 mM Hepes, and 1 mM sodium pyruvate. Compounds were spotted in empty 384 well tissue culture plates (Greiner 781182) by Echo for a final concentration of 0.0017-100 μM. Cells were plated into the TC plates at 40 μL per well, 2×10E6 cells/mL. For activation with STING ligand, 2′3′cGAMP (MW 718.38, obtained from Invivogen), was prepared in Optimem media.
The following solutions were prepared for each 1×384 plate: • Solution A: 2 mL Optimem with one of the following stimuli: • 60 μL of 10 mM 2′3′cGAMP 4 150 μM stock • Solution B: 2 mL Optimem with 60 μL Lipofectamine 2000 4 Incubate 5 min at RT
2 mL of solution A and 2 ml Solution B was mixed and incubated for 20 min at room temperature (RT). 20 μL of transfection solution (A+B) was added on top of the plated cells, with a final 2′3′cGAMP concentration of 15 μM. The plates were then centrifuged immediately at 340 g for 1 minute, after which they were incubated at 37° C., 5% CO2, >98% humidity for 24 h. Luciferase reporter activity was then measured. EC50 values were calculated by using standard methods known in the art.
Luciferase reporter assay: 10 μL of supernatant from the assay was transferred to white 384-plate with flat bottom and squared wells. One pouch of QUANTI-Luc™ Plus was dissolved in 25 mL of water. 100 μL of QLC Stabilizer per 25 mL of QUANTI-Luc™ Plus solution was added. 50 μL of QUANTI-Luc™ Plus/QLC solution per well was then added. Luminescence was measured on a Platereader (e.g., Spectramax I3X (Molecular Devices GF3637001)).
Luciferase reporter activity was then measured. EC50 values were calculated by using standard methods known in the art.

T1 sequence (Q86WV6 whole entry R71H/G230A/H232R/R293Q): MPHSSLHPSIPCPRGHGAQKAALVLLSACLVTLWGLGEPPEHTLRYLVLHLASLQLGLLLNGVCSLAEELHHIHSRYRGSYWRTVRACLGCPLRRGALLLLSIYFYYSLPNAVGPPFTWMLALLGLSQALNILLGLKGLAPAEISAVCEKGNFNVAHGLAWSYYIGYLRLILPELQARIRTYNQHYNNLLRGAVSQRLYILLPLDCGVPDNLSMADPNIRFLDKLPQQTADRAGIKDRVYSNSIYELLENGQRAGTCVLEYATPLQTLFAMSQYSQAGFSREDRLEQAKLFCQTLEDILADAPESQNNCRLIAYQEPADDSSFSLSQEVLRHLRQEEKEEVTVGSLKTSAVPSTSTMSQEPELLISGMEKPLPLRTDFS

EC50, 1000 to 5000 nM:
COCCn1c(Nc2cc(Cl)c3cc[nH]c3c2)nc2cc(Cl)c(Cl)cc21 [Compound 104, 5,6-dichloro-N-(4-chloro-1H-indol-6-yl)-1-(2-methoxyethyl)-1H-benzo[d]imidazol-2-amine]
Clc1ccc2c(c1)nc(Nc1cc(Cl)c3cc[nH]c3c1)n2Cc1ccccc1 [Compound 106, 1-benzyl-5-chloro-N-(4-chloro-1H-indol-6-yl)-1H-benzo[d]imidazol-2-amine]
Clc1ccc2c(c1)nc(Nc1cc(Cl)c3cc[nH]c3c1)n2CCc1ccccc1 [Compound 107, 5-chloro-N-(4-chloro-1H-indol-6-yl)-1-phenethyl-1H-benzo[d]imidazol-2-amine]
Cn1c(Nc2cc(Cl)c3cc[nH]c3c2)nc2cc(C(F)(F)F)ccc21 [Compound 113, N-(4-chloro-1H-indol-6-yl)-1-methyl-5-(trifluoromethyl)-1H-benzo[d]imidazol-2-amine]
Cn1c(Nc2ccc3cc[nH]c3c2)nc2ccc(C(F)(F)F)cc21 [Compound 114, N-(1H-indol-6-yl)-1-methyl-6-(trifluoromethyl)-1H-benzo[d]imidazol-2-amine]
CCn1c(Nc2ccc3cc[nH]c3c2)nc2cc(C(F)(F)F)ccc21 [Compound 122, 1-ethyl-N-(1H-indol-6-yl)-5-(trifluoromethyl)-1H-benzo[d]imidazol-2-amine]
CC(C)(C)C1CCC(c2ccc3[nH]c(Nc4cc(Cl)c5cc[nH]c5c4)nc3c2)CC1 (stereo not drawn) [Compound 136, 5-(4-tert-butylcyclohexyl)-N-(4-chloro-1H-indol-6-yl)-1H-1,3-benzodiazol-2-amine]
CCOC(=O)C1CCC(c2ccc3[nH]c(Nc4cc(Cl)c5cc[nH]c5c4)nc3c2)CC1 (stereo not drawn) [Compound 138, ethyl 4-{2-[(4-chloro-1H-indol-6-yl)amino]-1H-1,3-benzodiazol-5-yl}cyclohexane-1-carboxylate]
OC1CCC(c2ccc3[nH]c(Nc4cc(Cl)c5cc[nH]c5c4)nc3c2)CC1 (stereo not drawn) [Compound 139, 4-{2-[(4-chloro-1H-indol-6-yl)amino]-1H-1,3-benzodiazol-5-yl}cyclohexan-1-ol]
CC(C)(C)OC(=O)N1C2C=C(c3ccc4[nH]c(Nc5cc(Cl)c6cc[nH]c6c5)nc4c3)CC1CC2 (stereo not drawn) [Compound 140, tert-butyl 3-{2-[(4-chloro-1H-indol-6-yl)amino]-1H-1,3-benzodiazol-5-yl}-8-azabicyclo[3.2.1]oct-2-ene-8-carboxylate]
FC(F)(F)C1CCC(c2ccc3[nH]c(Nc4cc(Cl)c5cc[nH]c5c4)nc3c2)CC1 (stereo not drawn) [Compound 142, N-(4-chloro-1H-indol-6-yl)-5-[4-(trifluoromethyl)cyclohexyl]-1H-1,3-benzodiazol-2-amine]
Clc1cc(Nc2nc3cc(-c4ccc(N5CCCC5)nc4)ccc3[nH]2)cc2[nH]ccc12 [Compound 146, N-(4-chloro-1H-indol-6-yl)-5-[6-(pyrrolidin-1-yl)pyridin-3-yl]-1H-1,3-benzodiazol-2-amine]
CC(=O)N1CCC(c2ccc3[nH]c(Nc4cc(Cl)c5cc[nH]c5c4)nc3c2)CC1 [Compound 152, 1-(4-{2-[(4-chloro-1H-indol-6-yl)amino]-1H-1,3-benzodiazol-5-yl}piperidin-1-yl)ethan-1-one]

EC50, 40 to 200 nM:
Clc1cc2nc(Nc3cc(Cl)c4cc[nH]c4c3)[nH]c2cc1Cl [Compound 110, 5,6-dichloro-N-(4-chloro-1H-indol-6-yl)-1H-benzo[d]imidazol-2-amine]

EC50, 5000 to 100000 nM:
CC1(C)CC(c2ccc3[nH]c(Nc4cc(Cl)c5cc[nH]c5c4)nc3c2)CC(C)(C)O1 [Compound 143, N-(4-chloro-1H-indol-6-yl)-5-(2,2,6,6-tetramethyloxan-4-yl)-1H-1,3-benzodiazol-2-amine]
CN(C)CCn1cc(-c2ccc3[nH]c(Nc4cc(Cl)c5cc[nH]c5c4)nc3c2)cn1 [Compound 147, N-(4-chloro-1H-indol-6-yl)-5-{1-[2-(dimethylamino)ethyl]-1H-pyrazol-4-yl}-1H-1,3-benzodiazol-2-amine]

EC50, 200 to 1000 nM:
Fc1cc(Nc2nc3cc(Cl)c(Cl)cc3[nH]2)cc2[nH]ccc12 [Compound 105, 5,6-dichloro-N-(4-fluoro-1H-indol-6-yl)-1H-benzo[d]imidazol-2-amine]
Clc1cc(Nc2nc3ccc(C4CCC4)cc3[nH]2)cc2[nH]ccc12 [Compound 108, N-(4-chloro-1H-indol-6-yl)-6-cyclobutyl-1H-benzo[d]imidazol-2-amine]
Cn1c(Nc2cc(Cl)c3cc[nH]c3c2)nc2cc(Cl)c(Cl)cc21 [Compound 109, 5,6-dichloro-N-(4-chloro-1H-indol-6-yl)-1-methyl-1H-benzo[d]imidazol-2-amine]
FC(F)(F)c1cc2[nH]c(Nc3cc(Cl)c4cc[nH]c4c3)nc2cn1 [Compound 111, N-(4-chloro-1H-indol-6-yl)-6-(trifluoromethyl)-1H-imidazo[4,5-c]pyridin-2-amine]
FC(F)(F)c1cnc2nc(Nc3cc(Cl)c4cc[nH]c4c3)[nH]c2c1 [Compound 112, N-(4-chloro-1H-indol-6-yl)-6-(trifluoromethyl)-1H-imidazo[4,5-b]pyridin-2-amine]
Fc1ccc2nc(Nc3cc(Cl)c4cc[nH]c4c3)[nH]c2c1 [Compound 115, N-(4-chloro-1H-indol-6-yl)-6-fluoro-1H-benzo[d]imidazol-2-amine]
N#Cc1ccc2[nH]c(Nc3cc(Cl)c4cc[nH]c4c3)nc2c1 [Compound 116, 2-((4-chloro-1H-indol-6-yl)amino)-1H-benzo[d]imidazole-5-carbonitrile]
Clc1ccc2[nH]c(Nc3cc(Cl)c4cc[nH]c4c3)nc2c1 [Compound 117, 5-chloro-N-(4-chloro-1H-indol-6-yl)-1H-benzo[d]imidazol-2-amine]
Cc1ccc2[nH]c(Nc3cc(Cl)c4cc[nH]c4c3)nc2c1 [Compound 118, N-(4-chloro-1H-indol-6-yl)-5-methyl-1H-benzo[d]imidazol-2-amine]
Clc1cc(Nc2nc3cc(Br)ccc3[nH]2)cc2[nH]ccc12 [Compound 119, 5-bromo-N-(4-chloro-1H-indol-6-yl)-1H-benzo[d]imidazol-2-amine]
FC(F)(F)c1ccc2[nH]c(Nc3cc(Cl)c4cc[nH]c4c3)nc2c1 [Compound 120, N-(4-chloro-1H-indol-6-yl)-5-(trifluoromethyl)-1H-benzo[d]imidazol-2-amine]
Cn1c(Nc2ccc3cc[nH]c3c2)nc2cc(C(F)(F)F)ccc21 [Compound 121, N-(1H-indol-6-yl)-1-methyl-5-(trifluoromethyl)-1H-benzo[d]imidazol-2-amine]
FC(F)(F)c1ccc2[nH]c(Nc3ccc4cc[nH]c4c3)nc2c1 [Compound 123, N-(1H-indol-6-yl)-5-(trifluoromethyl)-1H-benzo[d]imidazol-2-amine]
Clc1cc(Nc2nc3cc(C4CCCOC4)ccc3[nH]2)cc2[nH]ccc12 (stereo not drawn) [Compound 141, N-(4-chloro-1H-indol-6-yl)-5-(oxan-3-yl)-1H-1,3-benzodiazol-2-amine]
Cn1ccc(-c2ccc3[nH]c(Nc4cc(Cl)c5cc[nH]c5c4)nc3c2)n1 [Compound 144, N-(4-chloro-1H-indol-6-yl)-5-(1-methyl-1H-pyrazol-3-yl)-1H-1,3-benzodiazol-2-amine]
Clc1cc(Nc2nc3cc(-c4ccc(CN5CCOCC5)s4)ccc3[nH]2)cc2[nH]ccc12 [Compound 145, N-(4-chloro-1H-indol-6-yl)-5-{5-[(morpholin-4-yl)methyl]thiophen-2-yl}-1H-1,3-benzodiazol-2-amine]
CC(C)(C)OC(=O)NC1CCC(c2ccc3[nH]c(Nc4cc(Cl)c5cc[nH]c5c4)nc3c2)CC1 (stereo not drawn) [Compound 148, tert-butyl N-(4-{2-[(4-chloro-1H-indol-6-yl)amino]-1H-1,3-benzodiazol-5-yl}cyclohexyl)carbamate]
N#CC1(c2ccc(-c3ccc4[nH]c(Nc5cc(Cl)c6cc[nH]c6c5)nc4c3)cc2)CC1 [Compound 149, 1-(4-{2-[(4-chloro-1H-indol-6-yl)amino]-1H-1,3-benzodiazol-5-yl}phenyl)cyclopropane-1-carbonitrile]
Cn1nccc1-c1ccc2[nH]c(Nc3cc(Cl)c4cc[nH]c4c3)nc2c1 [Compound 150, N-(4-chloro-1H-indol-6-yl)-5-(1-methyl-1H-pyrazol-5-yl)-1H-1,3-benzodiazol-2-amine]
CC(C)(C)OC(=O)N1CCCC(c2ccc3[nH]c(Nc4cc(Cl)c5cc[nH]c5c4)nc3c2)C1 (stereo not drawn) [Compound 151, tert-butyl 3-{2-[(4-chloro-1H-indol-6-yl)amino]-1H-1,3-benzodiazol-5-yl}piperidine-1-carboxylate]
